≈ marks a conversion by molar mass, not a printed value.

A short description of data set [1]: Rapamycin solubility from light scattering intensity of diluted reconstituted nanoparticle suspension. It is filed as physicochemical. The settings on record: saline or isotonic; in 0.9% saline solution; from light scattering intensity vs rapamycin concentration of reconstituted albumin-rapamycin nanoparticle suspension; read-out: solubility point of rapamycin. As to the method:
FIG. 5 depicts light scattering intensity (kcps) as a function of rapamycin concentration from a reconstituted suspension of the pharmaceutical composition comprising nanoparticles comprising rapamycin and albumin. When the suspensions were diluted to concentrations below the rapamycin solubility, the nanoparticles completely disintegrated and dissolved (see left 7-8 data points on graph). However, when the suspensions were diluted to concentrations above the rapamycin solubility, the nanoparticles only partially disintegrated and dissolved, and light scattering was observed (see right 4-5 data points on graph).
The albumin-based rapamycin nanoparticle compositions described herein in some embodiments have a particular in vitro release kinetic behavior. […] In this assay, the particle size and intensity of light scattered by the particles are measured by DLS over time following a reduction in particle concentration. In some embodiments, the release kinetics are determined by diluting the pharmaceutical composition in a 0.9% saline solution. In some embodiments, the release kinetics are determined by diluting the pharmaceutical composition in a 5% human albumin solution.
In some embodiments, the in vitro release is determined using the dynamic light scattering method. […] In some embodiments, the intensity of light scattered is measured at a scattering angle of 173°.

Data set [2] in a line: Solubility of rapamycin in reconstituted suspension by light scattering. The settings on record: saline or isotonic; reconstituted suspension of the pharmaceutical composition in 0.9% saline; mean±95% CI. It is filed as physicochemical. As to the method:
The change in intensity of light scattering in diluted samples of the reconstituted suspension of the pharmaceutical composition was used as a measure to determine the in vitro dissolution or disintegration of the nanoparticles, which implicates the release of rapamycin from the nanoparticles of the pharmaceutical composition. The percent of rapamycin released at any given time was determined using the light scattering intensity at zero time and at time t. The intensity of light scattering, measured by the Malvern Zetasizer Nano, is relative to the number of nanoparticles present in the pharmaceutical composition. […] If the release of rapamycin from the nanoparticles is controlled by the solubility limit and the reconstituted suspension is diluted to a concentration within the solubility range, then the nanoparticles should rapidly dissolve, causing the rapamycin to be readily released from the nanoparticles of the pharmaceutical composition, and the light scattering intensity will approach zero.
When the suspensions were diluted to concentrations above the rapamycin solubility, the nanoparticles only partially disintegrated and dissolved, and light scattering was observed. […] The solubility of rapamycin was determined as the concentration at which the intensity of the scattered light begins to increase linearly.

As to `CO[C@H]1C[C@@H]2CC[C@@H](C)[C@@](O)(O2)C(=O)C(=O)N2CCCC[C@H]2C(=O)O[C@H]([C@H](C)C[C@@H]2CC[C@@H](O)[C@H](OC)C2)CC(=O)[C@H](C)/C=C(\C)[C@@H](O)[C@@H](OC)C(=O)[C@H](C)C[C@H](C)/C=C/C=C/C=C/1C` [rapamycin], the solubility in data set [1] and in data set [2] was 16.1 ± 1.8 µg/mL (≈ 17.6 µM) throughout.

By solubility is commonly meant how much of the substance goes into solution per volume.

Values taken from patent publication US11497737B2, “Pharmaceutical compositions of albumin and rapamycin” (Abraxis BioScience, LLC, priority 2019, dated 2022).
